Test results: patent publication US9883691B2, “Food and beverage products containing 1,3-propanediol and methods of modifying flavor release using 1,3-propanediol” (Kraft Foods Group Brands LLC, priority 2012, dated 2018)
Counter-ions that a name gives are not always drawn.

Legend:
[1] = PTR-MS real-time headspace release, watermelon flavor model in water (Example 1); format: physicochemical; parameters: Sample A (PG) Mean / Sample B (1,3-propanediol) Mean: unit not given here
Procedure: The impact of 1,3-propanediol on the release of flavor compounds can be analyzed by Proton Transfer Reaction Mass Spectrometry (PTR-MS; model TOF-8000 from Ionicon Analytik Inc.), where real-time headspace release of volatiles is measured. A sampling apparatus is needed in conjunction with the PTR-MS inlet to prevent variations caused by headspace kinetics. By one exemplary approach, the sampling apparatus includes a 4 ounce sample vessel equipped with a 2-hole lid which may be sealed by an adhesive film to allow equilibration. […]. The holes are equal sized (˜2 mm diameter) and match the outer diameter of the PTR-MS inlet line. The flow of the dilution gas into the vessel is regulated by the vacuum and proportional valve of the PTR-MS inlet system. The sample vessel has a base diameter of 47 mm and is 45 mm high, of which 8 mm of height is occupied by the sample in the vessel in these experiments. The 2 holes in the lid are equidistant from the edge of the vessel (˜20 mm) and about 30 mm from each other. The PTR-MS inlet is braced by clamps in a fixed position vertically above the laboratory bench (˜55 mm) and a silicone rubber depth gauge is affixed to the PTR-MS inlet tubing and set at 18 mm. The PTR-MS inlet is thus consistently oriented in a vertical position 18 mm below the inside lid of the vessel and 19 mm above the sample in the vessel. The sample vessel is then held in place during sampling according to the depth gauge on the inlet line and the vessel is subsequently supported on the bench by a 10 mm plastic spacer.
15 grams of the sample to be tested (e.g., food or beverage product containing 1,3-propanediol) are added to the vessel. The vessel is sealed and allowed to equilibrate at room temperature (˜22° C.) for 90 minutes. At the time of sampling, the seal is removed from both the sampling hole and the dilution gas hole in the lid and the vessel is immediately affixed to the PTR-MS inlet via the sampling hole. The real-time released flavor is measured from the headspace of the sample vessel for two minutes (according to the conditions listed in Table 1 below). A comparative sample is prepared that is otherwise identical to the test sample but contains propylene glycol or water instead of 1,3-propanediol. The comparative sample is then analyzed in triplicate by PTR-MS using the above-described procedure. The data can be analyzed using PTR-MS Viewer, Version 3.0.0.101 (Ionicon Analytik G.m.b.H). The point of maximum intensity for each compound of interest can be determined and recorded according to the PTR-MS Viewer software. The maximum intensity in counts over the timescale for each compound of interest can be used for data analysis as it reflects the static equilibrium headspace concentration in the system at the moment of seal removal. Due to the necessity of a dilution gas, the volatile concentration decreases over time as the compounds of interest re-equilibrate to a state of dynamic equilibrium in the headspace.
[…]. Sample A was prepared with 20 grams watermelon flavor concentrate and 80 grams propylene glycol. Sample B was prepared with 20 grams watermelon flavor concentrate and 80 grams 1,3-propanediol. Each of the samples was further diluted by adding 0.08 grams of each diluted concentrate to 99.92 grams water to provide a flavor water solution.
The diluted samples were analyzed by Proton Transfer Reaction Mass Spectrometry (PTR-MS; model TOF-8000 from Ionicon Analytik Inc.) for real-time headspace release volatiles measurement. Samples were analyzed in triplicate. […]. […].

[2] = not marked (est); cited from earlier work

SMILES: CCOC=O [Ethyl formate]
- Sample B (1,3-propanediol) Mean ([1]; PTR-MS headspace, watermelon flavor concentrate in 1,3-propanediol, diluted in water, 90 minutes equilibration, mean of three): 41.67
- Sample A (PG) Mean ([1]; PTR-MS headspace, watermelon flavor concentrate in propylene glycol, diluted in water, 90 minutes equilibration, mean of three): 50.50
- Percent Release Difference ([1]; Sample B (1,3-propanediol) relative to Sample A (PG)): −17.5%
- logP (o/w) [2]: 0.23
